From publication PMC9596378, “Discovery and molecular basis of subtype-selective cyclophilin inhibitors” (Nature Chemical Biology, 2022)
Several values for one entry are separate records, joined by “and”; a condition that tells them apart may be missing. Identical values can stand only once. Like-named read-outs stand apart in the source and are kept apart here.

Key:
[1] = target: T1, CypD K118E (Homo sapiens, UniProt P30405, K118E); experiment: Chymotrypsin coupled prolyl-isomerase assay; type: biochemical; details: for IC50: prolyl-isomerase inhibition
T1 construct: made in house; host or cells: E. coli BL21(DE3)
Summary of the method: (§1)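 Cyclophilin (5 nM final) in 25 mM HEPES pH 7.3, 100 mM NaCl, 0.01% Triton X-100 was preincubated with compound (0.25% DMSO) 5 min at 2–3 °C, then with 25 µM α-chymotrypsin 5 min. Suc-AAPF-AMC (5 µM, in LiCl/trifluoroethanol) started the reaction; AMC fluorescence read every 1 s for 330 s.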

[2] = target: T2, CypD R124A (Homo sapiens, UniProt P30405, R124A); experiment: Chymotrypsin coupled prolyl-isomerase assay; type: biochemical
T2 construct: made in house; host or cells: E. coli BL21(DE3)
Summary of the method: as §1

[3] = system: isolated mouse liver mitochondria; experiment: Mitochondrial calcium retention capacity assay (mPTP opening); details: for calcium retention capacity before mPTP opening (in words): 2 µM CsA, 10 µM B52-Cy5/*B52-Cy5, 20 µM B53-Cy5/*B53-Cy5, vs DMSO; for Normalized # Pulses (calcium retention capacity ratio to DMSO): 60 µM CaCl2 pulses, individual mitochondrial preparations
Experimental: All procedures used in animal studies were approved by the Institutional Animal Care and Use Committee at Massachusetts General Hospital. Female C57BL/6J mice (Jackson Labs) age 10–12 weeks were anesthetized by isoflurane. The liver from one mouse was rinsed in ice-cold PBS, minced in ice-cold isolation buffer containing 0.28 M sucrose, 10 mM Hepes-KOH pH 7.2, 0.2 mM EDTA and 1% (w/v) bovine serum albumin, gently homogenized with four strokes of a tight-fitting Teflon pestle at 1,000 r.p.m., and then centrifuged for 10 min at 600g at 4 °C. The supernatant was recovered and centrifuged for 10 min at 8,000g at 4 °C. The loose outer buffy coat was rinsed off and the pellet resuspended gently in isolation buffer and the spins were repeated. […] The suspension was kept on ice and all assays performed within 4–6 h following isolation. Quality control was done with every preparation by adding 250 mcg mitochondria to 500 µL assay buffer containing 137 mM KCl, 10 mM Hepes-KOH pH 7.2, 2.5 mM MgCl2, 5 mM each of glutamate and malate, and 3 mM KH2PO4. Sequential 150 µM ADP pulses were then delivered. Only preparations with respiratory control ratio >6 (as assessed by the ratio of ADP-coupled state 3 respiration to state 4 respiration) were used for further experiments. Measurements were made in a custom-built spectrometer.
Two hundred and fifty micrograms of mouse liver mitochondria isolated as above were added to 500 µL assay buffer containing 125 mM KCl, 20 mM Hepes-KOH pH 7.2, 1 mM MgCl2, 5 mM each of glutamate and malate, and 3 mM KH2PO4. 0.5 µM Calcium Green 5N (Molecular Probes) was included to monitor extramitochondrial free Ca^2+. Fluorescence was continuously monitored in the custom-built fluorimeter described above, with excitation 470 nm and emission 520–560 nm. […] The calcium retention capacity ratio was obtained by normalizing the number of Ca^2+ pulses that could be taken up in a given condition by that taken up under DMSO control conditions, as previously described.

[4] = target: T3, CypA (Homo sapiens, UniProt P62937); experiment: Competition anisotropy binding assay with A26-Fl; details: FP competition with 0.5 nM A26-Fl, 24 h
T3 construct: PPIA (UniProtKB Entry P62937: residues 1–165); made in house; host or cells: E. coli BL21(DE3)
Experimental: (§2) Adapted from previous work[52], cyclophilin in assay buffer (25 mM HEPES pH 8.0, 100 mM NaCl, 0.01% Triton X-100) at a pre-determined concentration from Supplementary Table 6 was incubated with 0.5 nM A26-Fl for 10 min at room temperature in a flat-bottom black untreated 96-well plate (Corning). Competitor macrocycle was then added to each well and incubated for 24 h. Final assay volume was 100 µL with 0.25% DMSO. Fluorescence anisotropy was then measured using a Tecan Spark plate reader using 492 nm/523 nm excitation/emission settings.

[5] = target: T4, CypE (Homo sapiens, UniProt Q9UNP9); experiment: Competition anisotropy binding assay with A26-Fl
T4 construct: PPIE (UniProtKB Entry Q9UNP9: residues 131–301); host or cells: E. coli BL21(DE3)
Experimental: as §2

[6] = target: T5, CypE K217A (Homo sapiens, UniProt Q9UNP9, K217A); experiment: Competition anisotropy binding assay with A26-Fl
T5 construct: Lane 5- GS-CypE K217A (131-301);; His6 tag with thrombin site (pET28a LIC); GS remnant stays on the N-terminus (N, cleaved yes); host or cells: E. coli BL21(DE3)
Experimental: as §2

[7] = target: T6, CypE K218A (Homo sapiens, UniProt Q9UNP9, K218A); experiment: Competition anisotropy binding assay with A26-Fl; details: FP competition with 0.5 nM A26-Fl, 24 h
T6 construct: Lane 6- GS-CypE K218A (131-301);; His6 tag with thrombin site (pET28a LIC); GS remnant stays on the N-terminus (N, cleaved yes); host or cells: E. coli BL21(DE3)
Experimental: as §2

[8] = target: T7, PPIL1 (Homo sapiens, UniProt Q9Y3C6); experiment: Competition anisotropy binding assay with A26-Fl; details: FP competition with 0.5 nM A26-Fl, 24 h
T7 construct: PPIL1 (UniProtKB Entry Q9Y3C6: residues 1–166); made in house; host or cells: E. coli BL21(DE3)
T7 sequence (Q9Y3C6 1-166): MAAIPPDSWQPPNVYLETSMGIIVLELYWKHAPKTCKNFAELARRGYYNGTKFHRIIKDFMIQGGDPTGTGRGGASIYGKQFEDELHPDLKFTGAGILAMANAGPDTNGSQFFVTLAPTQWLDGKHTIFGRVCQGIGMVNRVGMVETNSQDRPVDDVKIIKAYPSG
Experimental: as §2

[9] = mutant CypD R124A, read-out: Mutant Cyclophilin Prolyl Isomerase Inhibition IC50 Values, CypD R124A

T4 sequence (Q9UNP9 131-301): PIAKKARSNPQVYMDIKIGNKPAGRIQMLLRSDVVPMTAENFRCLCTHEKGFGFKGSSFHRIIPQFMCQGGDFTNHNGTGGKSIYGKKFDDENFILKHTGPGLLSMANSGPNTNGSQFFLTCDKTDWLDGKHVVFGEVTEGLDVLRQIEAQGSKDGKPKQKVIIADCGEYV
T1 sequence (P30405 45-207 K118E): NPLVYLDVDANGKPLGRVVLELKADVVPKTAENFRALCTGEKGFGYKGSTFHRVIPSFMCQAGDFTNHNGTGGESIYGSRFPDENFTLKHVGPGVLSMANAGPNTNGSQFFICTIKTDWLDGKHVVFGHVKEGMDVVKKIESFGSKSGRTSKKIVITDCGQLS
T2 sequence (P30405 45-207 R124A): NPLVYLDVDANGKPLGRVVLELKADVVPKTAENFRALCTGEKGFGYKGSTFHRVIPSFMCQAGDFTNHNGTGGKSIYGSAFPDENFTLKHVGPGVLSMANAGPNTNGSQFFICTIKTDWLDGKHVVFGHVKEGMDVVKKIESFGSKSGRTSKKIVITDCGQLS
T6 sequence (Q9UNP9 131-301 K218A): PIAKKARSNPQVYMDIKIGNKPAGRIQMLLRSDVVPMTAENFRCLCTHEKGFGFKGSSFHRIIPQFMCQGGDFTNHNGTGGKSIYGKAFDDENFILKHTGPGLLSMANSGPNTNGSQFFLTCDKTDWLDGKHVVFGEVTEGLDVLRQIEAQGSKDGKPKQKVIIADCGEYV
T5 sequence (Q9UNP9 131-301 K217A): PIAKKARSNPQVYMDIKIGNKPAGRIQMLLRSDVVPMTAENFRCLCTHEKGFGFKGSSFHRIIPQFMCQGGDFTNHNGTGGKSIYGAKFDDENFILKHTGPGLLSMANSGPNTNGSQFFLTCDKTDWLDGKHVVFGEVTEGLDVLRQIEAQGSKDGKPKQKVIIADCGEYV
T3 sequence (P62937 whole entry, the tested form may be a part): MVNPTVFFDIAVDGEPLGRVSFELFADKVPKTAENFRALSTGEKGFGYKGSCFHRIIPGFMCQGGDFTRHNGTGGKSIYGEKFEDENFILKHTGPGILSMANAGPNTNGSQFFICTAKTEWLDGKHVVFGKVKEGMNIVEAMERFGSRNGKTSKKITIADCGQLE

Compound | IC50 [1] | IC50 [2, 9] | calcium retention capacity before mPTP opening (in words) [3] | other results
NCCOCCNC(=O)[C@@H]1CCNC(=O)/C=C/C(=O)N2CCC[C@](Cc3ccccc3)(C2)C(=O)N[C@@H](Cc2ccc(-c3ccc(C(CC(=O)O)CC(=O)O)cc3)cc2)C(=O)NCc2ccccc2CC(=O)N1 [Compound B53] | 4000 nM | 32 nM |  | 
C[N+]1=C(C=CC=CC=C2N(CCCCCC(=O)NCCNC(=O)C3CCNC(=O)C=CC(=O)N4CCCC(Cc5ccccc5)(C4)C(=O)NC(Cc4ccc(-c5ccc(CC(C(=O)O)C(=O)O)cc5)cc4)C(=O)NCc4ccccc4CC(=O)N3)c3ccccc3C2(C)C)C(C)(C)c2ccccc21 (centres unmarked) [*B52-Cy5] |  |  | do not influence calcium retention capacity | Normalized # Pulses (calcium retention capacity ratio to DMSO) ([3]; 10 µM compound): 1
C[N+]1=C(C=CC=CC=C2N(CCCCCC(=O)NCCNC(=O)C3CCNC(=O)C=CC(=O)N4CCCC(Cc5ccccc5)(C4)C(=O)NC(Cc4ccc(-c5ccc(C(CC(=O)O)CC(=O)O)cc5)cc4)C(=O)NCc4ccccc4CC(=O)N3)c3ccccc3C2(C)C)C(C)(C)c2ccccc21 (centres unmarked) [*B53-Cy5] |  |  | do not influence calcium retention capacity | Normalized # Pulses (calcium retention capacity ratio to DMSO) ([3]; 20 µM compound): 1
C[N+]1=C(C=CC=CC=C2N(CCCCCC(=O)NCCNC(=O)C3CCNC(=O)C=CC(=O)N4CCCC(Cc5ccccc5)(C4)C(=O)NC(Cc4ccc(-c5ccc(C(CC(=O)O)CC(=O)O)cc5)cc4)C(=O)NCc4ccccc4CC(=O)N3)c3ccccc3C2(C)C)C(C)(C)c2ccccc21 (centres unmarked) [Compound B53-Cy5] |  |  | substantially increased calcium retention capacity | Normalized # Pulses (calcium retention capacity ratio to DMSO) ([3]; 20 µM compound): 2.667 and 1.25 and 2
NCCOCCNC(=O)[C@@H]1CCNC(=O)/C=C/C(=O)N2CCC[C@](Cc3ccccc3)(C2)C(=O)N[C@@H](Cc2ccc(-c3ccc(CC(C(=O)O)C(=O)O)cc3)cc2)C(=O)NCc2ccccc2CC(=O)N1 [Compound B52] | 300 nM | 17 nM |  | 
NCCOCCNC(=O)[C@@H]1CCNC(=O)/C=C/C(=O)N2CCC[C@](Cc3ccccc3)(C2)C(=O)N[C@@H](Cc2ccc(-c3ccc(CCC(=O)O)cc3)cc2)C(=O)NCc2ccccc2CC(=O)N1 [Compound B23] | 180 nM | 3 nM |  | 
NCCCc1ccc(-c2ccc(C[C@@H]3NC(=O)[C@]4(Cc5ccccc5)CCCN(C4)C(=O)/C=C/C(=O)NCC[C@@H](C(=O)NCCOCCN)NC(=O)Cc4ccccc4CNC3=O)cc2)cc1 [Compound B32] | 1100 nM |  |  | potency improvement on CypD K118E, R124A compared to wild-type CypD ([1]; single mutants K118E, R124A): 5- to 6 fold; IC50 ([2]; prolyl-isomerase inhibition, read-out: IC50 CypD R124A): 700 nM
NC(=O)C1CCNC(=O)C=CC(=O)N2CCCC(Cc3ccccc3)(C2)C(=O)NC(Cc2ccc(-c3ccc(C=O)c(B(O)O)c3)cc2)C(=O)NCc2ccccc2CC(=O)N1 (centres unmarked) [Compound C3A] |  |  |  | Ki [4]: 1800 nM; selectivity for CypE over other tested cyclophilins ([5]; FP competition with A26-Fl): ≥ 10 fold; less potent at competing A26-Fl from CypE K217A compared to wild-type CypE [6]: 40 fold; Ki [7]: 250 nM; Ki [8]: 1100 nM
C[N+]1=C(C=CC=CC=C2N(CCCCCC(=O)NCCNC(=O)C3CCNC(=O)C=CC(=O)N4CCCC(Cc5ccccc5)(C4)C(=O)NC(Cc4ccc(-c5ccc(CC(C(=O)O)C(=O)O)cc5)cc4)C(=O)NCc4ccccc4CC(=O)N3)c3ccccc3C2(C)C)C(C)(C)c2ccccc21 (centres unmarked) [Compound B52-Cy5] |  |  | substantially increased calcium retention capacity | Normalized # Pulses (calcium retention capacity ratio to DMSO) ([3]; 10 µM compound): 4.333 and 3 and 4
NCCOCCNC(=O)[C@@H]1CCNC(=O)/C=C/C(=O)N2CCC[C@](Cc3ccccc3)(C2)C(=O)N[C@@H](Cc2ccc(-c3ccc(C#CC(=O)O)cc3)cc2)C(=O)NCc2ccccc2CC(=O)N1 [Compound B25] | 60 nM | 2 nM |  | 
NC(=O)[C@@H]1CCNC(=O)/C=C/C(=O)N2CCC[C@](Cc3ccccc3)(C2)C(=O)N[C@@H](Cc2ccc(-c3cccc(B(O)O)c3)cc2)C(=O)NCc2ccccc2CC(=O)N1 [Compound C6A] |  |  |  | Ki ([5]; FP competition with 0.5 nM A26-Fl, 24 h): 7000 nM; reduced potency relative to C3A ([5]; FP competition with A26-Fl, CypE): 100 fold
